Data from US9975857B2, “Inhibition of bacterial biofilms with imidazole-phenyl derivatives” (North Carolina State University, priority 2008, dated 2018).

System: A. baumannii
Assay: Biofilm inhibition assay (crystal violet, 96-well PVC plate)
Type: cell-based
Conditions: Acinetobacter baumannii, LB medium, 37° C., 24 hours, crystal violet OD540; for IC50: read-out: ACTIVITY against A. baumannii: IC50 (biofilm inhibition)
Experimental: Biofilm inhibition assays were performed by taking an overnight culture of bacterial strain and subculturing it at an OD600 of 0.10 into LB medium. The compound being tested was then added at a predetermined concentration and then aliquoted (100 μL) into the wells of a 96-well PVC microtiter plate (Wells not used for samples were filled with 100 μL of de-ionized water). Plates were then wrapped in GLAD Press n' Seal® and incubated under stationary conditions at 37° C. After 24 hours, the media was discarded from the wells and the plates were washed thoroughly with tap water. Plates were then stained with 100 μL of 0.1% solution of crystal violet (CV) and then incubated at an ambient temperature for 30 minutes. Sample plates were then washed with tap water again, and the remaining stain was solubilized with 200 μL of 95% ethanol. Biofilm inhibition was quantitated by measuring the OD540 for each well by transferring 125 μL of the solubilized CV stain into a polystyrene microtiter dish for analysis.

Structure (SMILES)	IC50	inhibition at 100 µM (at 100 μM, read-out: ACTIVITY against A. baumannii: % inhibition (biofilm inhibition))
Nc1ncc(-c2ccc(C#Cc3cc(F)cc(F)c3)cc2)[nH]1	< 50 µM	–
Nc1ncc(-c2ccc(C#Cc3ccccc3)cc2)[nH]1	6.54 µM	–
COc1ccc(C#Cc2ccccc2-c2cnc(N)[nH]2)c(C)c1	40 to 50 µM	–
Nc1ncc(-c2ccccc2C#Cc2cccc(Cl)c2)[nH]1	< 50 µM	–
Nc1ncc(-c2ccccc2C#Cc2ccccc2)[nH]1	50 to 75 µM	–
COc1ccccc1C#Cc1cccc(-c2cnc(N)[nH]2)c1	–	34%
